The values that follow come from ChEMBL document CHEMBL2086258, “Laxiflorolides A and B, epimeric bishomoditerpene lactones from Isodon eriocalyx” (J Nat Prod, 2012).

What all share (format): functional, cell-based
In one test the test system is SW480. The experiment in a line: Cytotoxicity against human SW480 cells after 48 hrs by MTT assay. The following applies: SW480, 48 h.
A further test relates to A549. The experiment in a line: Cytotoxicity against human A549 cells after 48 hrs by MTT assay. The following applies: A549, 48 h. In general terms: Tetrazolium dyes change colour on reduction, which living cells bring about.
For another test, the system named is MCF7. The experiment in a line: Cytotoxicity against human MCF7 cells after 48 hrs by MTT assay. The following applies: MCF7, 48 h.
The subject of another test is HL-60. The experiment in a line: Cytotoxicity against human HL60 cells after 48 hrs by MTT assay. The following applies: HL-60, 48 h.
The next test concerns SMMC-7721. Kind of test: Cytotoxicity against human SMMC7721 cells after 48 hrs by MTT assay. The following applies: SMMC-7721, 48 h.

For `C=C1C(=O)[C@]23C[C@H]1CC[C@H]2[C@@]12CO[C@]3(O)[C@@H](O)[C@@H]1C(C)(C)C=CC2=O` [ERIOCALYXIN B], the IC50 is 0.5 µM with SW480 (read-out: IC50); 0.501 µM in the test with SW480 (read-out: pIC50 (converted)); 3.1 µM with A549 (read-out: IC50); 3.16 µM with A549 (read-out: pIC50 (converted)); 0.6 µM in the test on MCF7 (read-out: IC50); 0.631 µM with MCF7 (read-out: pIC50 (converted)). Besides, the IC50 was 0.3 µM in the test with HL-60 (read-out: IC50), 0.316 µM with HL-60 (read-out: pIC50 (converted)), 0.8 µM with SMMC-7721 (read-out: IC50) and 0.794 µM in the test with SMMC-7721 (read-out: pIC50 (converted)).

Turning to `C=C1C(=O)[C@]23C[C@H]1CC[C@H]2[C@]12CO[C@H](CC1=O)C(C)(C)C2=C(O)C3=O` [MAOECRYSTAL P], the IC50 in the test with SW480 (read-out: IC50) is 2.1 µM; with SW480 (read-out: pIC50 (converted)) it was 2 µM; in the test on A549 (read-out: IC50), 6.3 µM; with A549 (read-out: pIC50 (converted)) it was 6.31 µM; with MCF7 (read-out: IC50), 1.8 µM; in the test with MCF7 (read-out: pIC50 (converted)), 2 µM. The IC50 was 1 µM in the test on HL-60 (read-out: IC50), 1 µM in the test on HL-60 (read-out: pIC50 (converted)), 2.8 µM in the test with SMMC-7721 (read-out: IC50) and 2.51 µM in the test with SMMC-7721 (read-out: pIC50 (converted)).

As for `C=C1[C@@H]2CC[C@H]3[C@@]45CO[C@](O)([C@@H](O)[C@@H]4C(C)(C)C=CC5=O)[C@]3(C2)[C@@H]1O` [MAOECRYSTAL C], the IC50 with SW480 (read-out: IC50) is 14.5 µM; in the test with SW480 (read-out: pIC50 (converted)), 15.8 µM; with A549 (read-out: IC50) it was more than 40 µM; in the test on A549 (read-out: pIC50 (converted)) it was more than 39.8 µM; in the test on MCF7 (read-out: IC50) it was 14.4 µM; in the test with MCF7 (read-out: pIC50 (converted)) it was 15.8 µM. Also, the IC50 was 18.9 µM with HL-60 (read-out: IC50), 20 µM in the test with HL-60 (read-out: pIC50 (converted)), more than 40 µM with SMMC-7721 (read-out: IC50) and more than 39.8 µM in the test with SMMC-7721 (read-out: pIC50 (converted)).

As to `C=C1[C@@H]2CC[C@H]3[C@]45CO[C@H](CC4=O)C(C)(C)C5=C(O)C(=O)[C@]3(C2)[C@@H]1O` (relative stereo), the IC50 was 15.4 µM in the test with SW480 (read-out: IC50); 15.8 µM in the test with SW480 (read-out: pIC50 (converted)); 24.9 µM in the test with A549 (read-out: IC50); 25.1 µM with A549 (read-out: pIC50 (converted)); 12.9 µM in the test with MCF7 (read-out: IC50); 12.6 µM in the test on MCF7 (read-out: pIC50 (converted)). Also, the IC50 with HL-60 (read-out: IC50) was 9.9 µM; with HL-60 (read-out: pIC50 (converted)), 9.9 µM; in the test on SMMC-7721 (read-out: IC50) it was 21.5 µM; in the test with SMMC-7721 (read-out: pIC50 (converted)) it was 20 µM.

Regarding `C[C@@H]1C[C@](O)([C@@H]2CC[C@@H]3[C@@H](C2)C(=O)[C@@H](O)[C@@H]2C(C)(C)[C@H]4CC(=O)[C@@]32CO4)C(=O)O1` [LAXIFLOROLIDE B], the IC50 in the test with SW480 (read-out: IC50) is more than 40 µM; in the test with SW480 (read-out: pIC50 (converted)), more than 39.8 µM; in the test on A549 (read-out: IC50), more than 40 µM; in the test with A549 (read-out: pIC50 (converted)), more than 39.8 µM; with MCF7 (read-out: IC50), more than 40 µM; in the test with MCF7 (read-out: pIC50 (converted)) it was more than 39.8 µM. Moreover, the IC50 in the test on HL-60 (read-out: IC50) was more than 40 µM; in the test on HL-60 (read-out: pIC50 (converted)), more than 39.8 µM; with SMMC-7721 (read-out: IC50) it was more than 40 µM; in the test with SMMC-7721 (read-out: pIC50 (converted)), more than 39.8 µM.

As to `C[C@H]1C[C@](O)([C@@H]2CC[C@@H]3[C@@H](C2)C(=O)[C@@H](O)[C@@H]2C(C)(C)[C@H]4CC(=O)[C@@]32CO4)C(=O)O1` [LAXIFLOROLIDE A], the IC50 in the test on SW480 (read-out: IC50) was more than 40 µM; with SW480 (read-out: pIC50 (converted)), more than 39.8 µM; in the test on A549 (read-out: IC50), more than 40 µM; with A549 (read-out: pIC50 (converted)) it was more than 39.8 µM; in the test with MCF7 (read-out: IC50), more than 40 µM; with MCF7 (read-out: pIC50 (converted)), more than 39.8 µM. Further, the IC50 in the test on HL-60 (read-out: IC50) was more than 40 µM; with HL-60 (read-out: pIC50 (converted)), more than 39.8 µM; in the test with SMMC-7721 (read-out: IC50) it was more than 40 µM; in the test with SMMC-7721 (read-out: pIC50 (converted)), more than 39.8 µM.

On to `CC1(C)[C@H]2[C@H](O)C(=O)[C@@H]3C[C@H](C(=O)O)CC[C@H]3[C@@]23CO[C@@H]1CC3=O` [LAXIFLORIN Q], for which the IC50 in the test with SW480 (read-out: IC50) is more than 40 µM; in the test with SW480 (read-out: pIC50 (converted)), more than 39.8 µM; in the test on A549 (read-out: IC50), more than 40 µM; with A549 (read-out: pIC50 (converted)), more than 39.8 µM; in the test on MCF7 (read-out: IC50), more than 40 µM; in the test with MCF7 (read-out: pIC50 (converted)) it was more than 39.8 µM. For the same compound, the IC50 in the test on HL-60 (read-out: IC50) was more than 40 µM; in the test on HL-60 (read-out: pIC50 (converted)) it was more than 39.8 µM; in the test with SMMC-7721 (read-out: IC50) it was more than 40 µM; in the test with SMMC-7721 (read-out: pIC50 (converted)) it was more than 39.8 µM.

Consider `C=C(C=O)[C@@H]1CC[C@@H]2[C@@H](C1)C(=O)[C@@H](O)[C@@H]1C(C)(C)[C@H]3CC(=O)[C@@]21CO3` [LAXIFLORIN P], for which the IC50 with SW480 (read-out: IC50) is 3.1 µM; in the test on SW480 (read-out: pIC50 (converted)), 3.16 µM; in the test on A549 (read-out: IC50), 11.7 µM; in the test on A549 (read-out: pIC50 (converted)), 12.6 µM; in the test with MCF7 (read-out: IC50), 3.2 µM; in the test on MCF7 (read-out: pIC50 (converted)) it was 3.16 µM. Also, the IC50 in the test with HL-60 (read-out: IC50) is 3.8 µM; in the test with HL-60 (read-out: pIC50 (converted)) it was 3.98 µM; with SMMC-7721 (read-out: IC50), 5.6 µM; with SMMC-7721 (read-out: pIC50 (converted)), 5.01 µM.
